The results in this text go back to US20230026611A1, “ARYL HETEROCYCLIC COMPOUNDS AS Kv1.3 POTASSIUM SHAKER CHANNEL BLOCKERS” (D. E. Shaw Research, LLC, priority 2019, published 2023).

Where only a bound is given, the exact number is not on record here.

In one assay the target is T1, Kv1.3 potassium channel (Homo sapiens, UniProt P22001).
T1 construct: expressed in transfected cells
In words: Kv1.3 potassium channel blocker activity, automated whole-cell patch clamp (Patchliner) in CHO-K1 cells stably expressing Kv1.3. The class given is cell-based. Particulars: CHO-K1 cells stably expressing Kv1.3; patch clamp, current inhibition; read-out: Kv1.3 IC50. How it is done:
Example 82. Evaluation of Kv1.3 potassium channel blocker activities
This assay is used to evaluate the disclosed compounds' activities as Kv1.3 potassium channel blockers.
CHO-K1 cells stably expressing Kv1.3 were grown in DMEM containing 10% heat-inactivated FBS, 1 mM sodium pyruvate, 2 mM L-glutamine, and G418 (500 μg/ml).
All compounds were dissolved in DMSO at 30 mM.
The currents were evoked by applying 100 ms depolarizing pulses from −90 mV (holding potential) to +40 mV were applied with 0.1 Hz frequency. […] 10-second breaks were used between pulse trains (see Table A below).
Data were sampled at 10 kHz without filtering. Passive leak currents were subtracted online using a P/4 procedure (HEKA Elektronik Dr. Schulze GmbH). […] Total compound incubation time before the next pulse train was not longer than 10 seconds. Peak current inhibition was observed during compound equilibration.
Background: In patch-clamp work, channel activity is measured electrically.

In a further assay the target is hERG channel (Homo sapiens, UniProt Q12809). As to the kind of experiment: hERG electrophysiology, automated whole-cell patch clamp (Patchliner) in CHO-K1 cells stably expressing hERG. In general terms: hERG is a cardiac potassium channel; its block is linked to QT prolongation.
Chain of hERG channel (Q12809 whole entry): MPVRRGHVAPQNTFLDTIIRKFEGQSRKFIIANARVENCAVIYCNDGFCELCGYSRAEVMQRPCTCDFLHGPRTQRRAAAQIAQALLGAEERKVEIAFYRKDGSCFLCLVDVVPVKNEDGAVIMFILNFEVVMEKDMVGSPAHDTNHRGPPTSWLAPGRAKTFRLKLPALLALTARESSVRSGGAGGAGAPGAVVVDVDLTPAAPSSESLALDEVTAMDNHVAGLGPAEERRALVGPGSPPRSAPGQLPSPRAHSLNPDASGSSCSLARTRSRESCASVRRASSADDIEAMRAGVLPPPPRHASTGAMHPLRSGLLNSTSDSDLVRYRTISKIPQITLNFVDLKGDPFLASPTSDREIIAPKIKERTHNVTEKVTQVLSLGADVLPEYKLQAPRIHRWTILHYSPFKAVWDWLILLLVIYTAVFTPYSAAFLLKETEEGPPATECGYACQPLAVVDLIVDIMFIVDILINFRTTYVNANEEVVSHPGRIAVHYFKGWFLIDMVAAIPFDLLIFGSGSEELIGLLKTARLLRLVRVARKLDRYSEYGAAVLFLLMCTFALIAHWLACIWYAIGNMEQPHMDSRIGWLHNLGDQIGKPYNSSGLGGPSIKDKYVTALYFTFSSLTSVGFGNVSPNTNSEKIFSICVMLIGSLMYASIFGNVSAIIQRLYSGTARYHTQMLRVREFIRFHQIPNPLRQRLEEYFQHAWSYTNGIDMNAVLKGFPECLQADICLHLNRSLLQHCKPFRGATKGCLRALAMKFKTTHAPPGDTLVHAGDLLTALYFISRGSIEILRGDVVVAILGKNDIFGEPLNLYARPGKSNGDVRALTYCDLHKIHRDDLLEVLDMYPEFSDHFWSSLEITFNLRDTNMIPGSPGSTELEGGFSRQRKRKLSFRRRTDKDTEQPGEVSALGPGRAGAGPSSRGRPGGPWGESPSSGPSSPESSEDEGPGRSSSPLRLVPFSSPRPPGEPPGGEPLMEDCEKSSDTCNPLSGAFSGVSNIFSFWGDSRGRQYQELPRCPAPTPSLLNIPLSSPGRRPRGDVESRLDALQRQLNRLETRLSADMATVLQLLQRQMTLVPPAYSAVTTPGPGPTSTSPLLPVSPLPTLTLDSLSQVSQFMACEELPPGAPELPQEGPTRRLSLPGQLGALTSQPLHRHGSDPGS

Broadly, the IC50 is the point on the concentration scale where inhibition reaches its midpoint.

T1 sequence (P22001 whole entry): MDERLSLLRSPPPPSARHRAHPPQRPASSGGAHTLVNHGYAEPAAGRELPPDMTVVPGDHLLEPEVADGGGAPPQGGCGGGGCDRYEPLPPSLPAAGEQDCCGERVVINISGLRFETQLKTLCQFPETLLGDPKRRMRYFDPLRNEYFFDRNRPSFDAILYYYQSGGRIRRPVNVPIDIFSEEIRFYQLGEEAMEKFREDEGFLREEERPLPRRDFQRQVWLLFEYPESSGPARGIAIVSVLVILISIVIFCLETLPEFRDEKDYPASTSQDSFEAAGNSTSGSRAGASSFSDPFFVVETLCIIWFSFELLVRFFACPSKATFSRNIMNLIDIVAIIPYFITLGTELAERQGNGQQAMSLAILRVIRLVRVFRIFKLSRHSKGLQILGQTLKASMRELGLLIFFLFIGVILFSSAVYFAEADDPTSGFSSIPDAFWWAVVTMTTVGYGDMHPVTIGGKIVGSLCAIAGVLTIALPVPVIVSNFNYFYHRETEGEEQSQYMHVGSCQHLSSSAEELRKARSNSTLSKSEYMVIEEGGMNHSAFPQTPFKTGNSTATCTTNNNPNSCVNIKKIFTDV
Method for hERG channel: Evaluation of hERG Activities
This assay is used to evaluate the disclosed compounds's inhibition activities against the hERG channel.
CHO-K1 cells stably expressing hERG were grown in Ham's F-12 Medium with glutamine containing 10% heat-inactivated FBS, 1% penicillin/streptomycin, hygromycin (100 μg/ml) and G418 (100 μg/ml). Cells were grown in culture flasks at 37° C. in a 5% CO2-humidified incubator.
The cells were bathed in an extracellular solution containing 140 mM NaCl, 4 mM KCl, 2 mM CaCl2), 1 mM MgCl2, 5 mM Glucose, 10 mM HEPES; pH adjusted to 7.4 with NaOH; 295-305 mOsm. The internal solution contained 50 mM KCl, 10 mM NaCl, 60 mM KF, 20 mM EGTA, 10 mM HEPES; pH adjusted to 7.2 with KOH; 285 mOsm. All compounds were dissolved in DMSO at 30 mM. Compound stock solutions were freshly diluted with external solution to concentrations of 30 nM, 100 nM, 300 nM, 1 μM, 3 μM, 10 μM, 30 μM and 100 μM. The highest content of DMSO (0.3%) was present in 100 μM.
The voltage protocol (see Table B) was designed to simulate voltage changes during a cardiac action potential with a 300 ms depolarization to +20 mV (analogous to the plateau phase of the cardiac action potential), a repolarization for 300 ms to −50 mV (inducing a tail current) and a final step to the holding potential of −80 mV. The pulse frequency was 0.3 Hz. Control (compound-free) and compound pulse trains for each compound concentration applied contained 70 pulses.
Whole-cell current recordings and compound application were enabled by means of an automated patch clamp platform Patchliner (Nanion). EPC 10 patch clamp amplifier (HEKA) along with Patchmaster software (HEKA Elektronik Dr. Schulze GmbH) was used for data acquisition. Data were sampled at 10 kHz without filtering. Increasing compound concentrations were applied consecutively to the same cell without washouts in between.
AUC and PEAK values were obtained with Patchmaster (HEKA Elektronik Dr. Schulze GmbH). To determine IC50 the last single pulse in the pulse train corresponding to a given compound concentration was used. Obtained AUC and PEAK values in the presence of compound were normalized to control values in the absence of compound. Using Origin (OridinLab), IC50 was derived from data fit to Hill equation: Icompound/control=(100−A)/(1+([compound]/IC50)nH)+A, where IC50 is the concentration at which current inhibition is half-maximal, [compound] is the applied compound concentration, A is the fraction of current that is not blocked and nH is the Hill coefficient.

Regarding `NC(=O)[C@H]1C[C@@H](c2cc(Cl)c(Cl)cc2O)CCN1` (relative stereo) [Compound 85, (2R,4S)-rel-4-(4,5-dichloro-2-hydroxyphenyl)piperidine-2-carboxamide], the values for the IC50 at Kv1.3 potassium channel and on hERG channel were less than 1 µM and more than 30 µM, respectively.

Consider `O=C(NCC1CC(c2c(O)ccc(Cl)c2Cl)CCN1)C1CC1` [Compound 106, (2R,4S)-rel-N-[[4-(2,3-dichloro-6-hydroxyphenyl)piperidin-2-yl]methyl]cyclopropane carboxamide], for which the IC50 at Kv1.3 potassium channel is less than 1 µM; against hERG channel it was more than 30 µM.

Consider `CC(=O)NC[C@H]1C[C@@H](c2c(O)ccc(Cl)c2Cl)CCN1` (single isomer, unassigned) [Compound 86], for which the half-inhibitory concentration (IC50) on Kv1.3 potassium channel was less than 1 µM; at hERG channel, more than 30 µM.

For `CC(=O)NCC1CC(c2c(O)ccc(Cl)c2Cl)CCN1` (stereo not drawn) [Compound 79, N-[[4-(2,3-dichloro-6-hydroxyphenyl)piperidin-2-yl]methyl]acetamide], the IC50 on Kv1.3 potassium channel is less than 1 µM; against hERG channel, more than 30 µM.

On to `CNC(=O)C1CC(c2c(O)ccc(Cl)c2Cl)CCN1` (stereo not drawn) [Compound 72, 4-(2,3-dichloro-6-hydroxyphenyl)-N-methylpiperidine-2-carboxamide], for which the IC50 at Kv1.3 potassium channel was less than 1 µM; against hERG channel, more than 30 µM.

For the compound `Cc1cc(O)c(C2CCNCC2)cc1Cl` [Compound 12, 4-chloro-5-methyl-2-(piperidin-4-yl)phenol], the IC50 on Kv1.3 potassium channel is less than 10 µM; at hERG channel, less than 30 µM.

As for `NCC1CCN(c2cc(Cl)c(Cl)cc2O)CC1` [Compound 28, 2-[4-(aminomethyl)pip-eridin-1-yl]-4,5-dichlorophenol], the IC50 on Kv1.3 potassium channel is less than 1 µM; at hERG channel, less than 30 µM.

As for `Nc1nnc([C@@H]2C[C@H](c3c(O)ccc(Cl)c3Cl)CCN2)o1` (single isomer, unassigned) [Compound 105], the IC50 is less than 1 µM at Kv1.3 potassium channel and more than 30 µM on hERG channel.

In the case of `NC(=O)[C@H]1C[C@@H](c2c(O)cc(Cl)c(Cl)c2Cl)CCN1` (single isomer, unassigned) [Compound 65], the IC50 on Kv1.3 potassium channel was less than 1 µM; against hERG channel, less than 30 µM.

For `O=C(NCC1CC(c2c(O)ccc(Cl)c2Cl)CCN1)C1COC1` [Compound 104, (2R,4S)-rel-N-[[4-(2,3-dichloro-6-hydroxyphenyl)piperidin-2-yl]methyl]oxetane-3-carboxamide], the IC50 was less than 1 µM at Kv1.3 potassium channel and more than 30 µM against hERG channel.

Take `CNC(=O)C[C@H]1C[C@@H](c2c(O)ccc(Cl)c2Cl)CCN1` (single isomer, unassigned) [Compound 30]: the IC50 is less than 1 µM on Kv1.3 potassium channel and more than 30 µM at hERG channel.

`Oc1ccc2ccccc2c1C1CCNCC1` [Compound 18, 1-(piperidin-4-yl)naphthalen-2-ol]: the figures for the concentration for half-maximal inhibition (IC50) on Kv1.3 potassium channel and against hERG channel were less than 1 µM and less than 30 µM, respectively.

As for `CS(=O)(=O)NC[C@@H]1C[C@H](c2c(O)ccc(Cl)c2Cl)CCN1` (single isomer, unassigned) [Compound 107], the concentration for half-maximal inhibition (IC50) on Kv1.3 potassium channel was less than 1 µM; against hERG channel it was more than 30 µM.

`O=S(=O)(NCC1CC(c2c(O)ccc(Cl)c2Cl)CCN1)c1cccnc1` [Compound 6, N-(2R,4S)-rel-[[4-(2,3-dichloro-6-hydroxyphenyl)piperidin-2-yl]methyl]pyridine-3-sulfonamide]: the IC50 was less than 1 µM at Kv1.3 potassium channel and more than 30 µM against hERG channel.

With `CNC1CCN(c2cc(Cl)c(Cl)cc2O)CC1` [Compound 24, 4,5-dichloro-2-[4-(methylamino)pip-eridin-1-yl]phenol], the IC50 at Kv1.3 potassium channel was less than 1 µM; against hERG channel, less than 30 µM.

As to `NC(=O)C[C@H]1C[C@@H](c2c(O)ccc(Cl)c2Cl)CCN1` (relative stereo) [Compound 108, 2-[(2R,4S)-rel-4-(2,3-dichloro-6-hydroxyphenyl)piperidin-2-yl]acetamide], the results for the concentration for half-maximal inhibition (IC50) on Kv1.3 potassium channel and against hERG channel were less than 1 µM and more than 30 µM, respectively.

For `CNC(=O)C[C@H]1C[C@@H](c2c(O)ccc(Cl)c2Cl)CCN1` (relative stereo) [Compound 115, 2-[4-(2,3-dichloro-6-hydroxyphenyl)piperidin-2-yl]-N-methylacetamide], the IC50 was less than 1 µM on Kv1.3 potassium channel and more than 30 µM against hERG channel.

Turning to `O=C([C@H](O)CO)N1CCC(c2c(O)ccc(Cl)c2Cl)CC1` [Compound 2, (2R)-1-[4-(2,3-dichloro-6-hydroxyphenyl)piperidin-1-yl]-2,3-dihydroxypropan-1-one], the IC50 at Kv1.3 potassium channel is less than 1 µM; on hERG channel, more than 30 µM.

Regarding `Oc1cc(Cl)cc(Cl)c1C1CCNCC1` [Compound 57, 3,5-dichloro-2-(piperidin-4-yl)phenol], the results for the IC50 at Kv1.3 potassium channel and against hERG channel were less than 1 µM and less than 30 µM, respectively.

As for `NC(=O)[C@@H]1C[C@H](c2c(O)cc(Cl)c(Cl)c2Cl)CCN1` (single isomer, unassigned) [Compound 63], the IC50 is less than 1 µM on Kv1.3 potassium channel and less than 30 µM against hERG channel.

With `NCC(=O)N1CCC(c2c(O)cc(Cl)c(Cl)c2Cl)CC1` [Compound 98, 2-amino-1-[4-(2,3,4-trichloro-6-hydroxyphenyl)piperidin-1-yl]ethan-1-one], the IC50 on Kv1.3 potassium channel was less than 1 µM; against hERG channel, less than 30 µM.

On to `NC(=O)C[C@@H]1C[C@H](c2c(O)ccc(Cl)c2Cl)CCN1` (single isomer, unassigned) [Compound 109], for which the IC50 at Kv1.3 potassium channel was less than 1 µM; on hERG channel, more than 30 µM.

`O=C(NC1CNC1)C1CCCC(c2c(O)ccc(Cl)c2Cl)N1` (stereo not drawn) [Compound 127, N-(azetidin-3-yl)-6-(2,3-dichloro-6-hydroxyphenyl)piperidine-2-carboxamide]: the IC50 at Kv1.3 potassium channel is less than 10 µM; against hERG channel it was more than 30 µM.

Turning to `Oc1cc(Cl)c(Cl)cc1C1CCCNCC1` (stereo not drawn) [Compound 39, 2-(azepan-4-yl)-4,5-dichlorophenol], the IC50 at Kv1.3 potassium channel is less than 1 µM; against hERG channel, less than 30 µM.

For the compound `Oc1cc(Cl)c(Cl)cc1C1=CCNCC1` [Compound 9, 4,5-dichloro-2-(1,2,3,6-tetrahydropyridin-4-yl)phenol], the IC50 on Kv1.3 potassium channel is less than 1 µM; at hERG channel, less than 30 µM.

With `O=C([C@H]1CCNC1)N1CCC(c2c(O)cc(Cl)c(Cl)c2Cl)CC1` [Compound 91, 3,4,5-trichloro-2-[1-[(3S)-pyrrolidine-3-carbonyl]piperidin-4-yl]phenol], the IC50 at Kv1.3 potassium channel is less than 1 µM; against hERG channel, less than 30 µM.

For `O=C(NC1CNC1)C1CCNC(c2c(O)ccc(Cl)c2Cl)C1` (stereo not drawn) [Compound 126, N-(azetidin-3-yl)-2-(2,3-dichloro-6-hydroxyphenyl)piperidine-4-carboxamide], the half-maximal inhibitory concentration (IC50) on Kv1.3 potassium channel is less than 10 µM; on hERG channel, more than 30 µM.

As for `O=S(=O)(NCC1CC(c2c(O)ccc(Cl)c2Cl)CCN1)c1ccccc1` [Compound 94, N-(2R,4S)-rel-[[4-(2,3-dichloro-6-hydroxyphenyl)piperidin-2-yl]methyl]benzenesulfonamide], the IC50 was less than 1 µM on Kv1.3 potassium channel and less than 30 µM at hERG channel.

Regarding `O=C(C[C@H]1C[C@@H](c2c(O)ccc(Cl)c2Cl)CCN1)N1CCOCC1` (relative stereo) [Compound 113, 2-[4-(2,3-dichloro-6-hydroxyphenyl)piperidin-2-yl]-1-(morpholin-4-yl)ethan-1-one], the values for the 50% inhibitory concentration (IC50) at Kv1.3 potassium channel and on hERG channel were less than 1 µM and more than 30 µM, respectively.

`Oc1c(C2CCNCC2)cc(Cl)c(Cl)c1Cl` [Compound 54, 2,3,4-trichloro-6-(piperidin-4-yl)phenol]: the IC50 at Kv1.3 potassium channel was less than 10 µM; against hERG channel, less than 30 µM.
